Test results published in patent publication US10207003B2, “Liquid pentablock co-polymer formulations for sustained delivery of therapeutics” (i-novion, Inc., priority 2016, dated 2019).

How the values were obtained:
[1] = Visual clarity of PTSsol formulations on storage; assay type: physicochemical; conditions: for Time formulation remained visibly clear without drug precipitating out: stored refrigerated, exemplary PTSsol, 1% and 2.5% brinzolamide, 1% cyclosporine A, 0.07% and 0.1% difluprednate; for Time formulation remained clear and stable: PTSsol, stored at room temperature or refrigerated at 4° C., 1% cyclosporine, up to 2.5% brinzolamide
Experimental: (§1) Hydrophobic active agents that are difficult to formulate in aqueous compositions are typically formulated as emulsions or suspensions. […] Similarly, PTSsol for 0.5% celecoxib was prepared in 10% PTS121GH in PBS buffer at pH 7.4. […] Referring to FIGS. 2 and 3 the stability of 2.5% brinzolamide in 25% 1-0 GH polymer dispersion in PBS at pH 7.4 was analyzed over 8 weeks, using HPLC.
In this example, an artificial tear composition using PTSsol polymers was generated. PTS solutions are clear, bioadhesive, biocompatible, and biodegradable polymers ideal for sensitive medical applications, such as preparing artificial tears for relieving eye discomfort caused by dry eye. […] Additional excipients can be added to the formulation as desired.

[2] = Dissolving hydrophobic active agents in PTSsol as clear aqueous liquids; assay type: physicochemical
Experimental: as §1

| Time formulation remained visibly clear without drug precipitating out [1] [days] | Dissolution in hydrophilic polymer ([2]; directly in PTS121 GH polymer) | Drug concentration of stable aqueous formulation ([2]; first dissolved in gelling polymer 113 GH or 122 GH, then mixed with PTS121 GH) [%] | Time formulation remained clear and stable [1] [weeks] | Time formulation remained clear and stable ([1]; listed as BRZ) [weeks] | Drug concentration dissolved as clear liquid ([2]; in 10% PTS1-0GH PTSsol) | Drug concentration dissolved as very clear liquid ([2]; in 10% of 121GH polymer) [%] | SMILES |
| --- | --- | --- | --- | --- | --- | --- | --- |
| 8 | does not readily dissolve | ≤ 0.1 |  |  |  |  | CCCC(=O)O[C@]1(C(=O)COC(C)=O)CC[C@H]2[C@@H]3C[C@H](F)C4=CC(=O)C=C[C@]4(C)[C@@]3(F)[C@@H](O)C[C@@]21C [difluprednate] |
| 28 |  |  | 8 | ≥ 8 | up to 2.5% | 2.5 | CCN[C@H]1CN(CCCOC)S(=O)(=O)c2sc(S(N)(=O)=O)cc21 [brinzolamide] |
